Measured values taken from US20130309380A1, “METHODS FOR PRESERVING FRESH PRODUCE” (NatureSeal, Inc., priority 2003, published 2013).

Assays:
[1] = test system: Red Delicious apples; experiment: Evaluation of sliced Red Delicious apples preserved with fresh produce preservative (scores); conditions: for Color / Flavor / Moistness / Texture: scale 0-10; for color/appearance score: scale to 10
Description: (§1) The texture, flavor, and moistness of the fruit were evaluated by tasting fruit samples. The color and/or appearance was also evaluated by visual inspection. The color, texture, moistness and flavor were then evaluated according to a scale of either 1 to 10, with 10 being the value assigned to a freshly cut piece of comparative fruit or vegetable. A value of less than 7 is not acceptable.
(§2) Whole Red Delicious apples were rinsed with tap water, sanitized with a sodium hypochlorite solution containing 100 ppm chlorine, then cored and sliced. The apple slices were immersed in water for 0.5 to 2 minutes. Then the apple slices were dipped into produce preservative solution containing 4% ascorbic acid and 1.59% K2CO3 having a pH 5.69 for 1 minute. The slices were removed from the solution and drained for 1-2 minutes, sealed in polyethylene bags, and stored at 2-5° C. For controls, sliced apples either not treated or were dipped into either 4% ascorbic acid with 0.66% NaOH to adjust the pH to 4.45. For comparison, sliced apples were dipped into a solution containing 4% ascorbic acid and 1.22% Na2CO3 and having a pH of 5.58.
(§3) The apples were evaluated and scored on a scale of 0-10 at time intervals. A score of 10 means that the fruit's color and appearance is as good as fresh cut fruit. A score of 7 is the minimum acceptable appearance. Hardness was measured with QTS25.
Red Delicious apples and Granny Smith apples were preserved with the fresh produce preservative as in Example 1 a, except that the preservative solution contained 4% ascorbic acid and 1% Li2CO3.

[2] = test system: Red Delicious apples; experiment: Hardness of sliced Red Delicious apples measured with QTS25
Description: The firmness or hardness of the fruit is the force required for a probe to penetrate the fruit a given distance into the fruit. The firmness is determined using a Quality and Test System 25 and TA 40 probe from Stevens Company. The TA 40 probe a black acetate, 4.5 mm diameter, 20 mm long rod probe having a flat end. The following settings were employed in the QTS system: the test type is a compression test of one cycle, 0 second hold time, 0 second recovery, 5 g trigger point, 30 mm/min test speed, target unit distance, and a target value of 3 mm. The apple pieces were 1 cm thick.
as §2, §3

[3] = test system: Granny Smith apples; experiment: Evaluation of sliced Granny Smith apples preserved with fresh produce preservative (scores); conditions: scale to 10
[4] = test system: Hass avocadoes; experiment: Evaluation of sliced Hass avocadoes preserved with fresh produce preservative (scores)
Description: as §1, §2
Hass avocadoes were preserved with the fresh produce preservative as in Example 1a, except that the preservative solution contained 9.3% ascorbic acid and 5.7% MnCl2.4H2O.
Sliced Hass avocadoes were preserved with the fresh produce preservative as in Example la, except that the preservative solution contained 6.5% ascorbic acid and 3.5% potassium chloride. For control, a 7% ascorbic acid solution was used.

[5] = test system: Bramley apples; experiment: Water released by sliced Bramley apples
Description: The firmness of the produce in Example 11a were evaluated by bending produce samples. Appearance was evaluated by visual inspection. The moisture was evaluated by measuring the amount of water the produce released.
Whole Bramley apples free from blemishes or bruises, were rinsed with water, sanitized with a sodium hypochlorite solution having 100 parts per million available chlorine, for two minutes, then peeled, cored, and sliced. The sliced apples were dipped into a fresh produce preservative solution that contained 5.12% strontium ascorbate; the fresh produce preservative solution contained 4.12% ascorbic acid and 1.79% […], for about 30 to 60 seconds. The apples were then drained in a colander for one minute. The apple slices and the colander were placed in 500 micron plastic bags from SunSet Packaging, stored at 4° C. and evaluated several times over a 15 day period. Water which collected in the plastic bag was removed and weighed.
For comparison, similarly prepared apple slices were placed in one of several solutions that contained either: 4.3% ascorbic acid and 1.13% hydrated MgCO3, specifically 4MgCO3.Mg(OH)25H2O or a 5.0% w/w aqueous solution of calcium ascorbate dihydrate, having a pH of 7.2; or a 5.3% w/w solution, of 4.12% ascorbic acid and 1.17% calcium carbonate,; or 6% ascorbic acid having a pH of 2.3; or 48 g ascorbic acid, 48 g citric acid, 16 g CaCl2 and 48 g NaCl in 800 g water, with a pH of 1.2; or 6% w/w citric acid and 6% w/w ascorbic acid; or 4.64% sodium ascorbate having 4.13% ascorbic acid and 1.18% NaCo3. […]

[6] = test system: Red Delicious apples; experiment: Evaluation of sliced Red Delicious apples (Examples 14 and 15, scores)
Description: The texture, flavor, and moistness of the fruit were evaluated by tasting fruit samples. The color and/or appearance was also evaluated by visual inspection. […] Then the apple slices were dipped for 1 minute into the following solutions: 3% ascorbic acid and 0.8% NH4Cl. For comparision, untreated slices were used as well as apple slices treated with 3% ascorbic acid or 2% ascorbic acid. The apples were removed, drained for 1-2 minutes, sealed in 2 mil, polyethylene bags, and stored at 2-5° C. Red Delicious apples were preserved with the fresh produce preservative as in Example 14a, except that the preservative solution contained 3.0% ascorbic acid and 0.8% CuSO4.

SMILES: O=C1O[C@H]([C@@H](O)CO)C(O)=C1O [Ascorbic Acid, ascorbic acid]
- Color ([1]; 0 hour): 10
- Flavor ([1]; 0 hour): 5
- Moistness ([1]; 0 hour): 10
- Texture ([1]; 0 hour): 10
- Color ([1]; 1 week at 2-5° C.): 9.6
- Flavor ([1]; 1 week at 2-5° C.): 7
- Moistness ([1]; 1 week at 2-5° C.): 10
- Texture ([1]; 1 week at 2-5° C.): 7.8
- color/appearance score ([1]; 1 week): 6
- Color ([1]; 2 week at 2-5° C.): 8.4
- Flavor ([1]; 2 week at 2-5° C.): 7
- Moistness ([1]; 2 week at 2-5° C.): 9
- Texture ([1]; 2 week at 2-5° C.): 7
- Color ([1]; 1 day at 2-5° C.): 10
- Flavor ([1]; 1 day at 2-5° C.): 8
- Moistness ([1]; 1 day at 2-5° C.): 10
- Texture ([1]; 1 day at 2-5° C.): 9.8
- color/appearance score ([1]; 24 hours (app)): 9
- color/appearance score ([1]; 3 days): 9
- Hardness ([2]; 0 hour): 2083
- Hardness ([2]; 1 week at 2-5° C.): 1578
- Hardness ([2]; 2 week at 2-5° C.): 1072
- color/appearance score ([3]; 1 week): 6
- color/appearance score ([3]; 1 day): 10
- color/appearance score ([3]; 3 days): 10
- color/appearance score ([4]; 1 day, scale to 10 (Table 6), listed as 6% Ascorbic Acid control, 6% Ascorbic Acid control): 6
- color/appearance score ([4]; 1 day, scale to 10 (Table 6), listed as 7% Ascorbic Acid control, 7% Ascorbic Acid control): 7
- color/appearance score ([4]; 1 day, scale to 10 (Table 6), listed as 8% Ascorbic Acid control, 8% Ascorbic Acid control): 8.5
- color/appearance score ([4]; 1 day, scale to 10 (Table 7)): 7
- color/appearance score ([4]; 2 days, scale to 10 (Table 7)): 6
- color/appearance score ([4]; 4 days, scale to 10 (Table 6)): 6
- Water Released ([5]; 4 hr at 4° C.): 6.78 g
- Water Released ([5]; 28 hr at 4° C.): 5.34 g
- Water Released ([5]; 52 hr at 4° C.): 4.19 g
- Water Released ([5]; 94 hr at 4° C.): 2.94 g
- Water Released ([5]; 191 hr at 4° C.): 2.63 g
- color/appearance score ([6]; 1 hour, scale to 10 (Table 15)): 10
- color/appearance score ([6]; 1 hour, scale to 10 (Table 16)): 10
- color/appearance score ([6]; 24 hours, scale to 10 (Table 15), listed as 2% Ascorbic Acid Control, 2% Ascorbic Acid control dip): 5.33
- color/appearance score ([6]; 24 hours, scale to 10 (Table 15), listed as 3% Ascorbic Acid Control, 3% Ascorbic Acid control dip): 6
- color/appearance score ([6]; 24 hours, scale to 10 (Table 16), listed as 2% Ascorbic Acid Control, 2% Ascorbic Acid control): 5
- color/appearance score ([6]; 24 hours, scale to 10 (Table 16), listed as 3% Ascorbic Acid Control, 3% Ascorbic Acid control): 6
- color/appearance score ([6]; Day 3, scale to 10 (Table 15), listed as 2% Ascorbic Acid Control, 2% Ascorbic Acid control dip): 5
- color/appearance score ([6]; Day 3, scale to 10 (Table 15), listed as 3% Ascorbic Acid Control, 3% Ascorbic Acid control dip): 6
- color/appearance score ([6]; Day 3, scale to 10 (Table 16), listed as 2% Ascorbic Acid Control, 2% Ascorbic Acid control): 5
- color/appearance score ([6]; Day 3, scale to 10 (Table 16), listed as 3% Ascorbic Acid Control, 3% Ascorbic Acid control): 6
- color/appearance score ([6]; Day 4, scale to 10 (Table 15), listed as 2% Ascorbic Acid Control, 2% Ascorbic Acid control dip): 6
- color/appearance score ([6]; Day 4, scale to 10 (Table 15), listed as 3% Ascorbic Acid Control, 3% Ascorbic Acid control dip): 4
- color/appearance score ([6]; Day 5, scale to 10 (Table 15), listed as 2% Ascorbic Acid Control, 2% Ascorbic Acid control dip): 6
- color/appearance score ([6]; Day 5, scale to 10 (Table 15), listed as 3% Ascorbic Acid Control, 3% Ascorbic Acid control dip): 4
- color/appearance score ([6]; Day 6, scale to 10 (Table 15), listed as 2% Ascorbic Acid Control, 2% Ascorbic Acid control dip): 6
- color/appearance score ([6]; Day 6, scale to 10 (Table 15), listed as 3% Ascorbic Acid Control, 3% Ascorbic Acid control dip): 4
